Patent US20110166112A1, “METHOD FOR STIMULATING PLATELET PRODUCTION” (Eisai, Inc., priority 2009, published 2011)
Values joined by “and” are separate entries in the source; they are usually repeats but may differ in a detail not shown here. Equal values may be shown once.

Test system: subjects with chronic idiopathic thrombocytopenic purpura (ITP)
Assay: Phase 2 double-blind placebo-controlled dose-ranging 28-day study of E5501 tablets: platelet count response (responder rate)
Format: in vivo, human
Conditions: for Responder, Yes / Responder, No: Day 28; for Subjects Who Maintained Responder Status, No / Subjects Who Maintained Responder Status, Yes: completer population; for Subjects Who Maintained Responder Status, Yes: Day 7 response maintained to Day 28; for subjects with increased platelet counts that met the criteria for positive response / response: day 28; for subjects with increased platelet counts that met the criteria for positive response: FAS
Method: This was a phase 2, multi-center, double-blind, randomized, placebo-controlled, dose-ranging, parallel group study of E5501 tablets, used in the treatment of subjects with chronic idiopathic thrombocytopenic purpura (ITP) refractory to or relapsed after at least one prior ITP therapy. Subjects who met all entry criteria were randomly assigned in a 3:3:3:3:1 ratio to one of the following five treatment groups dosed daily for 28 days: 1) E5501 2.5 mg; 2) E5501 5 mg; 3) E5501 10 mg; 4) E5501 20 mg; or 5) placebo (PBO). Each E5501 dosing group consisted of 15 subjects while the PBO group consisted of 5 subjects. All study subjects were evaluated weekly (days 7, 14, 21 and 28) for safety and efficacy while receiving study treatment, with a final assessment for safety and effectiveness performed 4 weeks after the last study dose (day 56) unless the subject entered the follow-on study. Platelet counts were also measured on day 3 and day 5.
The primary objective of this study was to assess platelet count response to E5501 on day 28. The response rate was defined as the proportion of subjects who were not on steroids with a screening visit B platelet count <30,000/mm^3 and who achieved a platelet count ≧50,000/mm^3, together with the proportion of subjects receiving steroids with a screening visit B platelet count ≧30,000/mm^3 but <50,000/mm^3 who achieved a platelet count ≧20,000/mm^3 above their screening visit B platelet count. Secondary objectives of the study included the evaluation of other markers of effectiveness, including changes in peripheral blood platelet count, the proportion of subjects who achieved a platelet count ≧50,000/mm^3 and ≧100,000/mm^3, and the proportion of subjects who achieved a doubling of their platelet count at screening visit B and the assessment of the safety and tolerability of E5501.
Primary efficacy endpoint. The primary endpoint in this study was E5501 responder rate on day 28. A responder is defined as a subject with screening visit B platelet count <30,000/mm^3 who achieves a platelet count ≧50,000/mm^3 or a subject receiving steroids with a screening visit B platelet count ≧30,000/mm^3 but <50,000/mm^3 who achieves a platelet count ≧20,000/mm^3 above their screening visit B platelet count.
The secondary endpoints included changes from screening visit B in peripheral blood platelet counts over time; the proportion of subjects who achieved a platelet count of ≧50,000/mm^3 or ≧100,000/mm^3 on day 28 and the proportion of subjects whose platelet count doubled compared to their platelet count at Screening Visit B.
The populations of interest were defined as follows: • The randomized population included all subjects who were randomized into the study. • The safety population included all randomized subjects who receive at least one dose of study drug and have at least one safety assessment. • The pharmacokinetic (PK) population included all subjects who provided blood sample for analysis of E5501. A subject was included in this population if the subject had at least one blood draw for PK assessment. • The full analysis set (FAS) included all subjects who provided adequate data to derive at least one efficacy assessment. […] The day 28 visit window was defined to be from day 25, to last dose day+1, inclusively; • Other major protocol violations that impacted the platelet endpoint evaluation. Results from Planned Analyses
Primary Efficacy Endpoint. The analysis of efficacy was performed both on the FAS population and the PP population at day 28 visit with LOCF and observed case (OC) approaches. The primary analysis population was the FAS. Fisher's exact test was used to examine the difference of response rates among each treatment pair. All p-values are nominal without adjustment for multiplicity.
Secondary Efficacy Endpoint. Analyses for secondary efficacy endpoints were performed by treatment group and by analysis visit using both LOCF and OC methods. […]

[1] = No Previous History of Splenectomy, 20 mg
[2] = No Previous History of Splenectomy, Total E5501
[3] = Number of Lines of Prior Therapy <3, 2.5 mg
[4] = Number of Lines of Prior Therapy <3, 5 mg
[5] = Number of Lines of Prior Therapy <3, 10 mg
[6] = Number of Lines of Prior Therapy <3, 20 mg
[7] = Number of Lines of Prior Therapy <3, Total E5501
[8] = Number of Lines of Prior Therapy ≧3, 2.5 mg
[9] = Number of Lines of Prior Therapy ≧3, 5 mg
[10] = Number of Lines of Prior Therapy ≧3, 10 mg
[11] = Number of Lines of Prior Therapy ≧3, 20 mg
[12] = Number of Lines of Prior Therapy ≧3, Total E5501
[13] = Per Protocol Population, 2.5 mg
[14] = Per Protocol Population, Total E5501
[15] = Previous History of Splenectomy, 2.5 mg
[16] = Previous History of Splenectomy, 5 mg
[17] = Previous History of Splenectomy, 10 mg
[18] = Previous History of Splenectomy, 20 mg
[19] = Previous History of Splenectomy, Total E5501

O=C(Nc1nc(-c2cc(Cl)cs2)c(N2CCN(C3CCCCC3)CC2)s1)c1cnc(N2CCC(C(=O)O)CC2)c(Cl)c1 [E5501, 1-(3-chloro-5-{[4-(4-chlorothiophen-2-yl)-5-(4-cyclohexylpiperazin-1-yl)thiazol-2-yl]carbamoyl}pyridine-2-yl)piperidine-4-carboxylic acid] was tested, and the “Responder, Yes” value (No Previous History of Splenectomy, 10 mg) was 6 (54.5) n (%), the “Responder, No” value [1] was 1 (11.1) n (%) and the “Responder, Yes” value [1] was 8 (88.9) n (%). The “Responder, No” value [2] was 20 (48.8) n (%), the “Responder, Yes” value [2] was 21 (51.2) n (%) and the “Responder, No” value [3] was 3 (100.0) n (%). The “Responder, Yes” value [3] was 0 n (%), the “Responder, No” value [4] was 4 (44.4) n (%) and the “Responder, Yes” value [4] was 5 (55.6) n (%). For the same compound, the “Responder, No” value [5] was 1 (25.0) n (%), the “Responder, Yes” value [5] was 3 (75.0) n (%) and the “Responder, No” value [6] was 1 (14.3) n (%). For the same compound, the “Responder, Yes” value [6] was 6 (85.7) n (%), the “Responder, No” value [7] was 9 (39.1) n (%) and the “Responder, Yes” value [7] was 14 (60.9) n (%). The “Responder, No” value [8] was 10 (83.3) n (%), the “Responder, Yes” value [8] was 2 (16.7) n (%) and the “Responder, No” value [9] was 3 (50.0) n (%). For the same compound, the “Responder, Yes” value [9] was 3 (50.0) n (%), the “Responder, No” value [10] was 6 (60.0) n (%) and the “Responder, Yes” value [10] was 4 (40.0) n (%). For the same compound, the “Responder, No” value [11] was 2 (25.0) n (%), the “Responder, Yes” value [11] was 6 (75.0) n (%) and the “Responder, No” value [12] was 21 (58.3) n (%). For the same compound, the “Responder, Yes” value [12] was 15 (41.7) n (%), the “Responder, No” value (Other Site Pooled, 2.5 mg) was 8 (88.9) n (%) and the “Responder, Yes” value (Other Site Pooled, 2.5 mg) was 1 (11.1) n (%). For the same compound, the “Responder, No” value (Other Site Pooled, 5 mg) was 6 (60.0)2 n (%), the “Responder, Yes” value (Other Site Pooled, 5 mg) was 4 (40.0) n (%) and the “Responder, No” value (Other Site Pooled, 10 mg) was 4 (57.1) n (%). For the same compound, the “Responder, Yes” value (Other Site Pooled, 10 mg) was 3 (42.9) n (%), the “Responder, No” value (Other Site Pooled, 20 mg) was 1 (16.7) n (%) and the “Responder, Yes” value (Other Site Pooled, 20 mg) was 5 (83.3) n (%). For the same compound, the “Responder, No” value (Other Site Pooled, Total E5501) was 19 (59.4) n (%), the “Responder, Yes” value (Other Site Pooled, Total E5501) was 13 (40.6) n (%) and the “Responder, No” value [13] was 11 (84.6) n (%). For the same compound, the “Responder, Yes” value [13] was 2 (15.4) n (%), the “Responder, No” value (Per Protocol Population, 5 mg) was 7 (53.8) n (%) and the “Responder, Yes” value (Per Protocol Population, 5 mg) was 6 (46.2) n (%). The “Responder, No” value (Per Protocol Population, 10 mg) was 5 (41.7) n (%), the “Responder, Yes” value (Per Protocol Population, 10 mg) was 7 (58.3) n (%) and the “Responder, No” value (Per Protocol Population, 20 mg) was 3 (25.0) n (%). For the same compound, the “Responder, Yes” value (Per Protocol Population, 20 mg) was 9 (75.0) n (%), the “Responder, No” value [14] was 26 (52.0) n (%) and the “Responder, Yes” value [14] was 24 (48.0) n (%). For the same compound, the “Responder, No” value [15] was 4 (80.0) n (%), the “Responder, Yes” value [15] was 1 (20.0) n (%) and the “Responder, No” value [16] was 2 (50.0) n (%). For the same compound, the “Responder, Yes” value [16] was 2 (50.0) n (%), the “Responder, No” value [17] was 2 (66.7) n (%) and the “Responder, Yes” value [17] was 1 (33.3) n (%). The “Responder, No” value [18] was 2 (33.3) n (%), the “Responder, Yes” value [18] was 4 (66.7) n (%) and the “Responder, No” value [19] was 10 (55.6) n (%). For the same compound, the “Responder, Yes” value [19] was 8 (44.4) n (%), the “Responder, No” value (Site 132, 2.5 mg) was 5 (83.3) n (%) and the “Responder, Yes” value (Site 132, 2.5 mg) was 1 (16.7) n (%). The “Responder, No” value (Site 132, 5 mg) was 1 (20.0) n (%), the “Responder, Yes” value (Site 132, 5 mg) was 4 (80.0) n (%) and the “Responder, No” value (Site 132, 10 mg) was 3 (42.9) n (%). The “Responder, Yes” value (Site 132, 10 mg) was 4 (57.1) n (%), the “Responder, No” value (Site 132, 20 mg) was 2 (22.2) n (%) and the “Responder, Yes” value (Site 132, 20 mg) was 7 (77.8) n (%). For the same compound, the “Responder, No” value (Site 132, Total E5501) was 11 (40.7) n (%), the “Responder, Yes” value (Site 132, Total E5501) was 16 (59.3) n (%) and the responder rate (by Day 7, 2.5 mg) was 6.7%. For the same compound, the responder rate (by Day 7, 5 mg) was 66.7%, the responder rate (by Day 7, 10 mg) was 64% and the responder rate (by Day 7, 20 mg) was 93.3% and 93%. The “subjects who achieved an increase in platelet count by ≧50,000/mm^3” value (by Day 7, 20 mg) was “Approximately 90%”, the “Subjects Who Maintained Responder Status, No” value (2.5 mg) was 13 (100.0) n (%) and the “Subjects Who Maintained Responder Status, No” value (5 mg) was 10 (71.4) n (%). The “Subjects Who Maintained Responder Status, No” value (10 mg) was 7 (58.3) n (%), the “Subjects Who Maintained Responder Status, No” value (20 mg) was 3 (23.1) n (%) and the “Subjects Who Maintained Responder Status, Yes” value (2.5 mg) was 0 n (%). For the same compound, the “Subjects Who Maintained Responder Status, Yes” value (5 mg) was 4 (28.6) n (%), the “Subjects Who Maintained Responder Status, Yes” value (10 mg) was 5 (41.7) n (%) and the “Subjects Who Maintained Responder Status, Yes” value (20 mg) was 10 (76.9) n (%). For the same compound, the “Subjects Who Maintained Responder Status, Yes” value (Total E5501) was 19 (36.5) n (%), the “Subjects Who Maintained Responder Status, No” value (Total E5501) was 33 (63.5) n (%) and the “subjects with increased platelet counts that met the criteria for positive response” value (2.5 mg) was 13.3%. The “subjects with increased platelet counts that met the criteria for positive response” value (5 mg) was 53.3%, the “subjects with increased platelet counts that met the criteria for positive response” value (10 mg) was 50% and the “subjects with increased platelet counts that met the criteria for positive response” value (20 mg) was 80%. For the same compound, the response (other sites pooled, 5 mg) was 40%, the response (site 132, 5 mg) was 80% and the “subjects who responded by day 7” value (dose of ≧5 mg) was 57.6%. The overall response rate (highest dose of E5501 tested) was 80-93%, the “reduction of response rates from day 7 to 28 days” value (lower E5501 dose groups) was “about 30%” and the “subjects treated with E5501 who responded by day 3” value (of 13 subjects) was “One”. The “subjects treated with E5501 who responded by day 5” value (of 19 subjects) was 6 subjects.
